Measured values as given in PMC11388281, “Prevotella are major contributors of sialidases in the human vaginal microbiome” (Proceedings of the National Academy of Sciences of the …, 2024).

How the values were obtained:
Assay in all cases: fluorescence sialidase assay with 4-MU-Neu5Ac
Assay type in all cases: biochemical
PtNanH2 = molecular target: T1, PtNanH2 (Hoylesella timonensis, UniProt D1VWZ8)
T1 construct: gene HMPREF9019_0332; full-length gene in pET28a, N-terminal His6 tag, E. coli BL21(DE3); 1,030 amino acids incl. predicted signal peptide

PtNanH1 = molecular target: T2, PtNanH1 (Hoylesella timonensis, UniProt D1VY87)
T2 construct: gene HMPREF9019_1088; full-length gene in pET28a, N-terminal His6 tag, E. coli BL21(DE3); 413 amino acids incl. predicted signal peptide

GvNanH3 = molecular target: T3, GvNanH3 (Gardnerella vaginalis, UniProt S4HLQ0)
T3 construct: full-length gene in pET28a, N-terminal His6 tag, E. coli BL21(DE3)
Text: fluorescence sialidase assay with 4-MU-Neu5Ac on GvNanH3 | All enzymes were inhibited by the well-characterized, broad-spectrum sialidase inhibitor, Neu5ac2en

PdNanH = molecular target: T4, PdNanH (Prevotella denticola, UniProt F0H7U2); conditions: 100 µM 4-MU-Neu5Ac, 5 nM enzyme, sodium acetate pH 5.5, 37 °C
T4 construct: gene HMPREF9303_0049; full-length gene in pET28a, N-terminal His6 tag, E. coli BL21(DE3); predicted signal peptide
Text: fluorescence sialidase assay with 4-MU-Neu5Ac on PdNanH | All enzymes were inhibited by the well-characterized, broad-spectrum sialidase inhibitor, Neu5ac2en

PbNanH = molecular target: T5, PbNanH (Prevotella bivia, UniProt I4ZBT3); conditions: 100 µM 4-MU-Neu5Ac, 5 nM enzyme, sodium acetate pH 5.5, 37 °C
T5 construct: gene PrebiDRAFT_2006; full-length gene in pET28a, N-terminal His6 tag, E. coli BL21(DE3)
Text: fluorescence sialidase assay with 4-MU-Neu5Ac on PbNanH | All enzymes were inhibited by the well-characterized, broad-spectrum sialidase inhibitor, Neu5ac2en

| SMILES | IC50 (PtNanH2) | IC50 (PtNanH1) | IC50 (GvNanH3) | IC50 (PdNanH) | IC50 (PbNanH) |
| --- | --- | --- | --- | --- | --- |
| CC(=O)N[C@H]1[C@H]([C@H](O)[C@H](O)CO)OC(C(=O)O)=C[C@@H]1N=C(N)N [Zanamivir] | 33.6 ± 15.5 µM |  |  |  |  |
| CC(=O)N[C@H]1[C@H]([C@H](O)[C@H](O)CO)OC(C(=O)O)=C[C@@H]1O [Neu5Ac2en] | 56 ± 23 µM | 180 ± 92.3 µM | 29 ± 5.6 µM | 50.5 ± 22.5 µM | 103 ± 20.3 µM |
